Assay results from patent publication US7288671B2, “Interleukin-1 and tumor necrosis factor-α modulators, synthesis of said modulators and their enantiomers and methods of using said modulators” (Nereus Pharmaceuticals, Inc., priority 1999, dated 2007).

What was measured:
THP-1 cells = test: Resazurin (alamarBlue) cell viability assay in differentiated THP-1 cells; format: cell-based, human; details: footnote marks: * mild, ** marked reduction in viability, in % (unit assumed)
Description: (§1) The ability to inhibit TNF-α production was analyzed in THP-1 cells, a human acute monocytic leukemia cell line that is widely used to assess monocyte functions. In order to induce maturation, THP-1 cells were plated at 1×10^6 cells/ml and pretreated with 5 nM PMA for two days. Differentiated THP-1 cells were pretreated with various concentrations of NPI-1302a-3 or its analogs for 1 hour, followed by a 4 hour incubation with 1 μg of LPS (Sigma, St. Louse, Mo.). The P38 inhibitor (10 μM, SB 203580; Sigma, St. Louis, Mo.) was used as a positive control. Supernatants were collected and stored at −80° C. until assayed for TNF-α activity. A resazurin assay was performed for each analog to evaluate the effects on cell metabolism and viability.
A preparation of the dye resazurin, commercially-available as alamarBlue™ (Biosource International Inc.; 820 Flynn Road, Camarillo, Calif.), was used for the cytotoxicity assays described herein. The assays and experiments described herein were conducted in substantially the same manner as described in the scientific literature, for example, in Magnani, E and Bettini, E., “Resazurin detection of energy metabolism changes in serum-starved PC12 cells and of neuroprotective agent effect,” Brain Res Protoc., Jul. 5, 2000(3):266-72 and in Nociari M. M., Shalev A., Benias P., and Russo C. J, “A novel one-step, highly sensitive fluorometric assay to evaluate cell-mediated cytotoxicity,” Immunol.Methods 213, 157-167 (1998), see also U.S. Pat. No. 5,501,959, entitled “Antibiotic and Cytotoxic Drug Susceptibility Assays using Resazurin and Poising Agents,” the entire specification of which is incorporated herein by reference.

[1] = test system: TNF-α synthesis of THP-1 cells; test: LPS-induced TNF-α production in PMA-differentiated THP-1 cells (FLISA); format: cell-based, human; details: THP-1, LPS
Description: as §1
To detect the presence of human TNFα, fluorescent linked immunosorbent assay or FLISA was developed and optimized. 100 μl of beads (6 μm, Spherotech) coated with goat anit-mouse IgG (1 mg/ml, R and D Systems) were mixed with 4 μl of biotin-anti-hTNFα mouse IgG (0.1 mg/ml, R and D Systems) and 2 μl of FMAT Blue-streptavidin (0.1 mg/ml, Applied Biosystems). 50 μl of the mixtures was combined with 50 μl of the supernatant isolated from treated THP-1 cells and added to the black wall FLISA plates (Applied Biosystems) and incubated overnight. The plates were scanned at factory set PMT setting, and the values were plotted and analyzed by Applied Biosystems software.

IL-6 synthesis = test: SAC-induced IL-6 synthesis, RAW 264.7 macrophage cells; format: cell-based, Murine
Description: (§2) Murine macrophage cells RAW 264.7 (1×10^6/ml) were pretreated for 30-60 minutes with varying doses of the synthetic compound of Formula (I), the synthetic compound of formula (I) and a panel of analogs (diluted in 0.5% DMSO) prior to stimulation with various agents such as lipopolysaccharide (LPS) or a gram positive agent like heat-killed Staph aureus (SAC). Supernatants collected over a 72-hour period will be assayed for the levels of TNF-α, IL-1, IL-6, IL-10, IL-12 and other cytokines either by elisa or bioassay. Additional studies to evaluate the effects of the synthetic compound of Formulae (I), (II), (IIA) and (IIB) on cytokine signaling pathways such as, for example, Caspase-activity (Nr-1, Nr.3), transcription factors such as NF-kB, MAP-kinase activity (p38, ERK and JNK) will also be performed.

LPS/D-Gal administration = test: Mortality after LPS/D-Gal administration; format: in vivo; details: i.p., TTL3 45 minutes prior to LPS
IL-1 synthesis = test: Inhibition of SAC-induced IL-1 synthesis, RAW 264.7 macrophage cells; format: cell-based, Murine; details: for IL-1α: Table 6, SAC-induced, SAC alone 650, unstimulated 0
Description: as §2

TNF-α synthesis [2] = test: Inhibition of SAC-induced TNF-α synthesis, RAW 264.7 macrophage cells; format: cell-based, Murine; details: SAC alone 375, unstimulated 5
Description: as §2

TNF-α synthesis [3] = test: Inhibition of LPS-induced TNF-α synthesis, RAW 264.7 macrophage cells; format: cell-based, Murine; details: for TNF-α: Table 7, LPS alone 88
Description: as §2

SMILES: C=CC1(C)CCC=C2C1CCC1C(C)(CNCCN)CCCC21C (racemic) [CC-3-13 ra]
- Cell Viability (THP-1 cells; 100 ng/ml): 95*
- Cell Viability (THP-1 cells; 1 ug/ml): 75**
- Cell Viability (THP-1 cells; 10 ug/ml): 20**
- Percent TNF-α Inhibition ([1]; 100 ng/ml): 10%
- Percent TNF-α Inhibition ([1]; 1 ug/ml): 50%
- Percent TNF-α Inhibition ([1]; 10 ug/ml): 95%

SMILES: C=CC1(C)CCC=C2C1CCC1C(C)(CC=O)CCCC21C (stereo not drawn) [CC-3-14]
- Cell Viability (THP-1 cells; 100 ng/ml): 100
- Cell Viability (THP-1 cells; 1 ug/ml): 100
- Percent TNF-α Inhibition ([1]; 100 ng/ml): 25%
- Percent TNF-α Inhibition ([1]; 1 ug/ml): 30%

SMILES: C=CC1(C)CCC=C2C1CCC1C(C)(C(=O)N3CCOCC3)CCCC21C (stereo not drawn) [LT-1-85]
- Cell Viability (THP-1 cells; 100 ng/ml): 100
- Cell Viability (THP-1 cells; 1 ug/ml): 100
- Cell Viability (THP-1 cells; 10 ug/ml): 80*
- Percent TNF-α Inhibition ([1]; 100 ng/ml): 10%
- Percent TNF-α Inhibition ([1]; 1 ug/ml): 45%
- Percent TNF-α Inhibition ([1]; 10 ug/ml): 55%

SMILES: C=C[C@@]1(C)CCC=C2[C@H]1CC[C@@H]1[C@](C)(C(=O)O)CCC[C@@]21C [TTL1]
- Cell Viability (THP-1 cells; 100 ng/ml): 100
- Cell Viability (THP-1 cells; 1 ug/ml): 100
- inhibition at 0.1 µg/mL ([1]; Homo sapiens, 100 ng/ml, read-out: Percent TNF-α Inhibition): 10%
- inhibition at 1 µg/mL ([1]; Homo sapiens, 1 ug/ml, read-out: Percent TNF-α Inhibition): 30%
- inhibition at 10 µg/mL ([1]; Homo sapiens, 10 ug/ml, read-out: Percent TNF-α Inhibition): 50%
- inhibition of IL-6 synthesis (IL-6 synthesis): neither analog TTL1 nor TTL3 significantly inhibited IL-6 synthesis

SMILES: C=CC1(C)CCC=C2C1CCC1C(C)(COC(C)=O)CCCC21C (stereo not drawn) [LT-1-46]
- Cell Viability (THP-1 cells; 100 ng/ml): 100
- Cell Viability (THP-1 cells; 1 ug/ml): 90*
- Cell Viability (THP-1 cells; 10 ug/ml): 90*
- Percent TNF-α Inhibition ([1]; 100 ng/ml): 0%
- Percent TNF-α Inhibition ([1]; 1 ug/ml): 0%
- Percent TNF-α Inhibition ([1]; 10 ug/ml): 20%

SMILES: C=CC1(C)CCC=C2C1CCC1C(C)(COC(=O)CCC(=O)O)CCCC21C (stereo not drawn) [CC-3-17]
- Cell Viability (THP-1 cells; 100 ng/ml): 90*
- Cell Viability (THP-1 cells; 1 ug/ml): 85*
- Cell Viability (THP-1 cells; 10 ug/ml): 75**
- Percent TNF-α Inhibition ([1]; 100 ng/ml): 10%
- Percent TNF-α Inhibition ([1]; 1 ug/ml): 20%
- Percent TNF-α Inhibition ([1]; 10 ug/ml): 25%

SMILES: C=CC1(C)CCC=C2C1CCC1C(C)(C(=O)N(CCO)CCO)CCCC21C (stereo not drawn) [LT-1-78]
- Cell Viability (THP-1 cells; 100 ng/ml): 100
- Cell Viability (THP-1 cells; 1 ug/ml): 100
- Cell Viability (THP-1 cells; 10 ug/ml): 100
- Percent TNF-α Inhibition ([1]; 100 ng/ml): 0%
- Percent TNF-α Inhibition ([1]; 1 ug/ml): 0%
- Percent TNF-α Inhibition ([1]; 10 ug/ml): 20%

SMILES: C=CC1(C)CCC=C2C1CCC1C(C)(CCNCCN)CCCC21C (racemic) [CC-3-15 ra]
- Cell Viability (THP-1 cells; 1 ug/ml): 100
- Cell Viability (THP-1 cells; 10 ug/ml): 100
- Percent TNF-α Inhibition ([1]; 1 ug/ml): 25%
- Percent TNF-α Inhibition ([1]; 10 ug/ml): 65%

SMILES: C=CC1(C)CCC=C2C1CCC1C(C)(C(=O)NCCN)CCCC21C (stereo not drawn) [LT-1-74]
- Cell Viability (THP-1 cells; 100 ng/ml): 100
- Cell Viability (THP-1 cells; 1 ug/ml): 100
- Percent TNF-α Inhibition ([1]; 100 ng/ml): 25%
- Percent TNF-α Inhibition ([1]; 1 ug/ml): 30%

SMILES: C=CC1(C)CCC=C2C1CCC1C(C)(C(=O)OC)CCCC21C (stereo not drawn) [TTL3]
- Mortality 24 hours (LPS/D-Gal administration; LPS/D-Gal alone 10/10, + DMSO 8/10): 2/10
- Mortality 48 hours (LPS/D-Gal administration; LPS/D-Gal alone 10/10, + DMSO 9/10): 2/10
- IL-1α (IL-1 synthesis; TTL3 0.001 μg/ml): 200 pg/mL
- IL-1α (IL-1 synthesis; TTL3 0.01 μg/ml): 220 pg/mL
- IL-1α (IL-1 synthesis; TTL3 0.1 μg/ml): 190 pg/mL
- IL-1α (IL-1 synthesis; TTL3 1 μg/ml): 180 pg/mL
- IL-1α (IL-1 synthesis; TTL3 10 μg/ml): 170 pg/mL
- times greater activity than TTL1 (inhibiting IL-1 synthesis) (IL-1 synthesis; stimulus not given): approximately 100 times
- Cell Viability (THP-1 cells; 100 ng/ml): 100
- Cell Viability (THP-1 cells; 1 ug/ml): 100
- Cell Viability (THP-1 cells; 10 ug/ml): 100
- Percent TNF-α Inhibition ([1]; 100 ng/ml): 30%
- Percent TNF-α Inhibition ([1]; 1 ug/ml): 55%
- Percent TNF-α Inhibition ([1]; 10 ug/ml): 70%
- inhibition of IL-6 synthesis (IL-6 synthesis): neither analog TTL1 nor TTL3 significantly inhibited IL-6 synthesis
- TNF-α (TNF-α synthesis [2]; Table 5, TTL3 0.001 μg/ml): 80 ng/mL
- TNF-α (TNF-α synthesis [2]; Table 5, TTL3 0.01 μg/ml): 75 ng/mL
- TNF-α (TNF-α synthesis [2]; Table 5, TTL3 0.1 μg/ml): 85 ng/mL
- TNF-α (TNF-α synthesis [2]; Table 5, TTL3 1 μg/ml): 60 ng/mL
- TNF-α (TNF-α synthesis [2]; Table 5, TTL3 10 μg/ml): 80 ng/mL
- TNF-α (TNF-α synthesis [3]; LPS (1 μg/ml) + TTL3 1.0 μg/ml): 13 ng/mL
- TNF-α (TNF-α synthesis [3]; LPS (1 μg/ml) + TTL3 1 × 10^2 μg/ml): 4 ng/mL
- TNF-α (TNF-α synthesis [3]; LPS (1 μg/ml) + TTL3 1 × 10^−4 μg/ml): 15 ng/mL
- TNF-α (TNF-α synthesis [3]; LPS (1 μg/ml) + TTL3 1 × 10^−5 μg/ml): 10 ng/mL
- TNF-α (TNF-α synthesis [3]; LPS (1 μg/ml) + TTL3 1 × 10^−6 μg/ml): 18 ng/mL
- TNF-α (TNF-α synthesis [3]; LPS (1 μg/ml) + TTL3 1 × 10^−7 μg/ml): 41 ng/mL
- times greater activity than TTL1 (inhibiting TNF-α synthesis) (TNF-α synthesis [3]; stimulus not given): approximately 100 times

SMILES: C=CC1(C)CCC=C2C1CCC1C(C)(C=O)CCCC21C (stereo not drawn) [CC-3-09]
- Cell Viability (THP-1 cells; 100 ng/ml): 100
- Cell Viability (THP-1 cells; 1 ug/ml): 100
- Cell Viability (THP-1 cells; 10 ug/ml): 100
- Percent TNF-α Inhibition ([1]; 100 ng/ml): 0%
- Percent TNF-α Inhibition ([1]; 1 ug/ml): 0%
- Percent TNF-α Inhibition ([1]; 10 ug/ml): 10%

SMILES: C=CC1(C)CCC=C2C1CCC1C(C)(C(=O)[O-])CCCC21C.[Na+] (stereo not drawn) [TTL-1Na]
- Cell Viability (THP-1 cells; 1 ug/ml): 90*
- Cell Viability (THP-1 cells; 10 ug/ml): 80*
- Percent TNF-α Inhibition ([1]; 1 ug/ml): 40%
- Percent TNF-α Inhibition ([1]; 10 ug/ml): 50%

SMILES: C=CC1(C)CCC=C2C1CCC1C(C)(C(=O)[O-])CCCC21C.[K+] (stereo not drawn) [TTL-1K]
- Percent TNF-α Inhibition ([1]; 100 ng/ml): 10%
- Percent TNF-α Inhibition ([1]; 1 ug/ml): 50%
